Measured values as given in PubChem BioAssay AID1645866 (Buhrlage Lab, Dana-Farber Cancer Institute and Novartis …, 2021).
Calls of active or inactive are those of the source.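 The calls were made as follows: active = in confirmatory dose-response testing, peak deubiquitinase inhibition of 30% or more; inactive = the rest.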

Target: Ubiquitin carboxyl-terminal hydrolase 28 (Homo sapiens) (UniProt Q96RU2)
Experiment: Ubiquitin-specific peptidase 28 DUB inhibitors, biochemical concentration-dependence assay, validation of primary screening hits (AID 1645866)
Conditions: purified USP28, ubiquitin-rhodamine fluorescence, 30 min

Ubiquitin carboxyl-terminal hydrolase 28 (Homo sapiens), sequence (Q96RU2 whole entry, looked up): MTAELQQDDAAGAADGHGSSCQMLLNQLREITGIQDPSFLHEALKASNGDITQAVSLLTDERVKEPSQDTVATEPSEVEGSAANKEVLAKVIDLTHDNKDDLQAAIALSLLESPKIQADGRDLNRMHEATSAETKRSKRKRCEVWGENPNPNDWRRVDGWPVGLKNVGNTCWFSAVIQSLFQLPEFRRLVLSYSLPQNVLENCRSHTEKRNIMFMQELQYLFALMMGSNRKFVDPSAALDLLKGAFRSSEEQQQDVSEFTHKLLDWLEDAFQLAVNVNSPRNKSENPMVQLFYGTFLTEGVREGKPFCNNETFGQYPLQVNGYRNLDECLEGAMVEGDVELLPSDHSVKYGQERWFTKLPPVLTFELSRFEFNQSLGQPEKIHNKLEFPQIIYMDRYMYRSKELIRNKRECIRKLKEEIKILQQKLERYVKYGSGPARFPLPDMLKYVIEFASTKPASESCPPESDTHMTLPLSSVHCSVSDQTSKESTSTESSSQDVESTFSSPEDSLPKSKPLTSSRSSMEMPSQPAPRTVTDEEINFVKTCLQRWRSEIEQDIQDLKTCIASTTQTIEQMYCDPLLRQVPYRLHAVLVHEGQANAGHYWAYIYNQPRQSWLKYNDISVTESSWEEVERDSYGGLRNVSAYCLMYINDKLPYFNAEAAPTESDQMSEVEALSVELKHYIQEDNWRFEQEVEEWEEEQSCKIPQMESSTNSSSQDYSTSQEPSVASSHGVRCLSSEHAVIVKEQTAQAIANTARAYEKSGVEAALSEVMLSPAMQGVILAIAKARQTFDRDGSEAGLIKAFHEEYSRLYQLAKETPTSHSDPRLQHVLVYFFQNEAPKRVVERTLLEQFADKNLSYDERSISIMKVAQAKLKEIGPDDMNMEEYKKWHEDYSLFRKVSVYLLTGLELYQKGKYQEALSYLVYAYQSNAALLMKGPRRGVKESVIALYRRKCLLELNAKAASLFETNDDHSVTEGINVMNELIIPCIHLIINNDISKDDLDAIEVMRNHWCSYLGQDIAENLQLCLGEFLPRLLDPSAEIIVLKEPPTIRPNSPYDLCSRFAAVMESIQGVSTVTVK

| SMILES | IC50 |
| --- | --- |
| COc1ccc(CC(=O)NCc2ccc3[nH]c(C)cc3c2)cc1 | > 50 µM (inactive) |
| CC(C)c1nc2sc3c(NCc4ccco4)ncnc3c2c2c1CCC2 | 3.08 µM |
| CSc1ncccc1C(=O)OCc1ccc(Br)cc1 | 1.98 µM |
| Cc1cccc(C(=O)Nc2ccccc2Sc2nc3c(c(=O)n(C)c(=O)n3C)n2C)c1 | 42.6 µM |
| CN(CCCNC(=O)c1cccc2c1SCCC2=O)c1ccccc1 | > 50 µM (inactive) |
| N#C/C(=C\c1ccc(OCc2cccc(C(=O)O)c2)cc1)c1ccc(F)cc1 | 17.8 µM |
| O=C(NC1CCN(Cc2ccccc2)CC1)c1[nH]nc2c1COc1ccccc1-2 | 6.98 µM |
| O=C1NC(=O)/C(=C/c2ccc(OC(=O)c3ccc(Cl)cc3Cl)cc2)N1 | 4.46 µM |
| N#Cc1cccc(S(=O)(=O)N2CCc3nc4ccccc4n3CC2)c1 | 21.7 µM |
| Cc1nc(Nc2c3ccccc3nc3ccccc23)sc1C | > 50 µM (inactive) |
| c1ccc2c(Cc3nc(-c4ccncc4)no3)cccc2c1 | 0.374 µM |
| N#Cc1ccc(NC(=O)Nc2cccn(Cc3ccccc3F)c2=O)cc1 | 0.235 µM |
| O=C(NCc1ccc(F)cc1)C1CCCN(c2cnc3nccnc3c2)C1 (centres undefined) | > 50 µM (inactive) |
| O=C(NCCc1ccco1)c1ccc(N2CCOc3ccccc32)s1 | 22.4 µM |
| O=C(OCc1cccc(Cl)c1)c1ccc2ccccc2n1 | 0.36 µM |
| CCOc1ccc(CC(=O)Nc2ccc(-c3cn4cccnc4n3)cc2)cc1 | 14.6 µM |
| O=C1CC(O)C(O)c2cccc(O)c21 (centres undefined) | 23.6 µM |
| CCn1ccc2c(cc(C(=O)Nc3cccc(OC)c3)n2C)c1=O | 2.83 µM |
| O=C(NCCCN1CCc2ccccc2C1)c1cc2c(s1)CS(=O)(=O)C2 | > 50 µM (inactive) |
| Nc1nonc1C(=O)NCCNCc1cccc(OCc2ccc(Cl)cc2)c1 | 32.6 µM |
| COc1ccccc1NC(=O)c1cc(-c2ccccn2)nc2ccccc12 | 27.4 µM |
| Cc1ccc(Cn2c(=O)n(CCC(=O)NCCc3ccccc3)c(=O)c3ccccc32)cc1 | 13 µM |
| COc1ccc(-n2nnc3c(SCC(=O)Nc4cc(C)on4)ncnc32)cc1 | > 50 µM (inactive) |
| O=C(Nc1ccc2c(c1)OCCO2)c1cccc2nc3ccccc3nc12 | 1.99 µM |
| CCOC(=O)C1C(c2ccc(Br)cc2)C2(C(=O)c3ccccc3C2=O)C2C=Cc3ccccc3N12 (centres undefined) | > 50 µM (inactive) |
| COc1ccc2nc(Nc3nc(-c4cnc(N5CCOCC5)nc4C)cc(=O)[nH]3)nc(C)c2c1 | > 50 µM (inactive) |

| SMILES | IC50 |
| --- | --- |
| Cc1cc(C)c(O)c(-c2cc(C(=O)Nc3ccccc3Cl)[nH]n2)c1 | 3.54 µM |
| CCCC(=O)Nc1ccc(SCc2nnc(-c3ccccc3)o2)cc1 | 12.7 µM |
| NS(=O)(=O)c1ccc(NC(=O)Cn2cnc3cc([N+](=O)[O-])ccc3c2=O)cc1 | 19.9 µM |
| Cc1ccccc1-c1noc(-c2ccccc2OCC(=O)NC(C)C)n1 | > 50 µM (inactive) |
| COc1cccc2c1NC(=O)C21CCN(C(=O)Nc2cccc(C)c2)CC1 | 14.6 µM |
| O=C1COc2ccccc2N1Cc1noc(-c2ccccc2)n1 | 4.6 µM |
| COC(=O)C1C(c2ccc(OC)cc2)C2(C(=O)c3ccccc3C2=O)C2C=Cc3ccccc3N12 (centres undefined) | > 50 µM (inactive) |
| CCOC(=O)c1cc2c(ccn2C)n1CC(=O)N1CCC(C)CC1 | > 50 µM (inactive) |
| O=C(COC(=O)c1ccc2[nH]c3c(c2c1)CCCC3)Nc1ccc2c(c1)OCO2 | 23.6 µM |
| C/C=C(\Cl)C1=CC(=O)[C@]23C[C@H]2[C@@]2(C)CO[C@@]1(O)[C@@]3(O)O2 | > 50 µM (inactive) |
| CCCc1nc2sc3c(NCCc4ccc(OC)c(OC)c4)ncnc3c2c2c1CCC2 | < 0.05 µM |
| CC(=O)c1sc(NC(=O)c2ccccc2-c2ccc(C(F)(F)F)cc2)nc1C | 18.8 µM |
| Cc1cccc(-c2nc3n(CC(=O)Nc4ccc(Cl)cc4)c(C)cc(=O)n3n2)c1 | 0.985 µM |
| CC1=C(C(=O)Nc2ccccc2C)C(c2ccc(OCc3ccccc3F)cc2)n2ncnc2N1 (centres undefined) | 21.6 µM |
| CN(C)c1ccc(CCN2CCc3nc4cccnc4cc3C2)cc1 | > 50 µM (inactive) |
| COc1c(C)c(C(O)C(C)O)c2[nH]c3ccc(CC=C(C)C)cc3c2c1O (centres undefined) | 17.4 µM |
| O=C(CNC(=O)OCc1ccccc1)Nc1ccc(Br)cc1C(=O)c1ccccc1Cl | 11.3 µM |
| COc1ccc(CC(=O)Nc2cccc(-c3nc4ncccc4o3)c2)cc1OC | > 50 µM (inactive) |
| CC1Cc2ccccc2N1C(=O)Cn1c(=O)cc(O)c2ccccc21 (centres undefined) | 18.8 µM |
| Fc1cccc(-n2cc(-c3noc(-c4ccccn4)n3)nn2)c1 | 23.7 µM |
| CCCC1Cc2c(sc3nc(SCC)nc(N)c23)CO1 (centres undefined) | 16.4 µM |
| COc1ccc(S(=O)(=O)N(C)Cc2cccs2)cc1OC | 17.4 µM |
| O=C(CSc1ncnc2c1sc1cccc(F)c12)N1CCCCCC1 | > 50 µM (inactive) |
| Cc1nn(C)c2c1[C@@H](c1ccc(F)c(Br)c1)[C@H](NC(=O)c1ccccc1)C(=O)N2 | 3.79 µM |
| COc1ccc(CCN2COc3c(cc(Cl)c4cccnc34)C2)cc1OC | 14.1 µM |
| O=S(=O)(c1ccccc1Cl)N1CCN(c2ccc3nnc(-c4ccco4)n3n2)CC1 | > 50 µM (inactive) |

| SMILES | IC50 |
| --- | --- |
| c1ccc(CN2CCN(c3nc4ccccc4n4nnnc34)CC2)cc1 | > 50 µM (inactive) |
| COCC(=O)Nc1cc(F)c2nc(N3CCOCC3)ccc2c1 | > 50 µM (inactive) |
| COc1ccc(-c2nonc2NC(=O)C(c2ccccc2)c2ccccc2)cc1OC | > 50 µM (inactive) |
| Cc1nc(NCc2ccccn2)c2cc(-c3ccccc3)sc2n1 | 23.7 µM |
| CCc1ccc(NC(=O)CN=C2NS(=O)(=O)C(c3ccc(CC)cc3)=C2C)cc1 | 21.7 µM |
| COc1ncccc1CN1CCn2c(Cn3cccn3)cnc2C1C (centres undefined) | > 50 µM (inactive) |
| O=C(Cn1c(-c2ccccc2)ncc(C(=O)NC2CC2)c1=O)Nc1ccccc1 | 14.2 µM |
| COc1cccc(C(=O)Nc2ccc(-n3cnnn3)cc2)c1 | 21.7 µM |
| COc1ccc(OC)c(-c2c(C#N)c(C)nc3c2N2CCC3CC2)c1 | 1.8 µM |
| Cc1ccc2c(Nc3ccc(CC(=O)O)cc3)c(C(=O)N3CCCC3)cnc2n1 | > 50 µM (inactive) |
| Cc1cc2nc(/C=C/c3ccccc3)n(Cc3cccc(F)c3)c2cc1C | 4.94 µM |
| O=C(CCCn1c(=O)c2ccccc2n(CC(=O)NCc2ccccc2Cl)c1=O)NCc1ccc2c(c1)OCO2 | 1.94 µM |
| Cc1ccc(Cn2cc(-c3noc(-c4ccc[nH]4)n3)nn2)cc1 | 16.2 µM |
| O=C(COC(=O)c1ccc2ncsc2c1)Nc1ccccc1F | > 50 µM (inactive) |
| CCCCCCCc1cc(O)cc(OC(=O)c2c(CCCCCCC)cc(O)cc2O[C@H]2O[C@H](C(O)CO)[C@@H](O)[C@@H]2O)c1 (some centres undefined) | 2.18 µM |
| COc1cccc(-c2cc(=O)[nH]c(Nc3nc(C)c4ccccc4n3)n2)c1 | 25.9 µM |
| O=C(CCCc1c[nH]c2ccccc12)Nc1ccc2c(c1)OCCO2 | 4.42 µM |
| Fc1ccc(Nc2nc(Nc3cccc(F)c3)nc3nccnc23)cc1 | > 50 µM (inactive) |
| COc1cc(OC)cc(-c2nc(-c3cn(-c4cccc(F)c4)nn3)no2)c1 | 0.483 µM |
| O=c1c2cnc(N3CCCCC3)nc2ccn1CCc1ccccc1 | 5.5 µM |
| CCOc1ccc(NC(=O)CSc2nc3n[nH]c(C)c3c(=N)n2-c2ccc(OC)cc2)cc1 | 34 µM |
| Nc1c(-c2nc(-c3ccc4c(c3)OCO4)cs2)nnn1-c1ccccc1 | 30.8 µM |
| COc1ccc(OC)c(NC(=O)C2Oc3ccccc3NC2=O)c1 (centres undefined) | 8.5 µM |
| O=C(OCCCN1C(=O)c2cccc3c(N4CCCCC4)ccc(c23)C1=O)c1ccccn1 | > 50 µM (inactive) |
| Cc1ccc2c(=O)c(C(=O)Nc3ccccc3)cn(CC(=O)NC3CCCCC3)c2n1 | > 50 µM (inactive) |
| CSc1cccc(NC(=O)CNC(=O)c2cc3ccccc3o2)c1 | 46.2 µM |

| SMILES | IC50 |
| --- | --- |
| CCCn1c(=O)n(CC(=O)c2ccccc2F)c2c(C(N)=O)nc(-c3ccco3)nc21 | > 50 µM (inactive) |
| O=C(CCc1nnc2n(Cc3ccccc3)c(=O)c3ccccc3n12)N1CCN(c2ccccn2)CC1 | 2.98 µM |
| COc1ccc(C(=O)Nc2ccc(S(=O)(=O)N3CCCCC3)cc2)cc1 | 17.4 µM |
| O=c1c2cnc(N3CCOCC3)nc2ccn1CCc1ccccc1 | 15.2 µM |
| CN1CCN(C(=O)c2ccn(-c3ccc4ccc(-c5cnn(C)c5)cn34)n2)CC1 | > 50 µM (inactive) |
| Cc1cc(C)n2nc(CNc3cccc(Cl)c3)nc2n1 | 16.4 µM |
| Cc1ccc2nc(-c3cccc(-c4nc5ccc(C)cc5[nH]4)n3)[nH]c2c1 | > 50 µM (inactive) |
| CCOC(=O)c1cnc(C(F)(F)F)nc1Sc1n[nH]c(-c2cccs2)n1 | > 50 µM (inactive) |
| O=C(CN1C(=O)C2CCCC2=Nc2ccccc21)Nc1ccc(F)cc1F (centres undefined) | 26.2 µM |
| CN(C(=O)c1ccncc1)[C@H]1CC[C@@]2(C)C[C@H](c3ccccc3)C[C@](C)(O2)[C@@H]1O | > 50 µM (inactive) |
| CCc1ccc(OCc2nnc(SCC(=O)Nc3ccccc3OC)n2Cc2ccccc2)cc1 | > 50 µM (inactive) |
| O=C(COc1ccc(S(=O)(=O)N2CCOCC2)cc1)N1CCC(Cc2ccccc2)CC1 | 12.2 µM |
| CCOc1cc(C2C3=C(CC(C)(C)CC3=O)Nc3onc(C)c32)ccc1O (centres undefined) | 37.5 µM |
| N#Cc1cc2c(nc1SCC(=O)NCc1ccccc1)CCCC2 | > 50 µM (inactive) |
| Cc1noc(C)c1CN1CC[C@H]2O[C@H](C(=O)NCc3ccco3)CC[C@H]21 | > 50 µM (inactive) |
| CCC1(C)Cc2c(sc3nc(SCC(=O)Nc4ccc(C(C)=O)cc4)nc(N)c23)CO1 (centres undefined) | 17.9 µM |
| O=C(Cn1c(=O)c2sccc2n(Cc2ccc([N+](=O)[O-])cc2)c1=O)NCCc1ccccc1 | 19.5 µM |
| CC(C)C1Cc2c(sc3nc(SCC(=O)Nc4cccc5ccccc45)nc(N)c23)CO1 (centres undefined) | 38.5 µM |
| COc1cccc(NC(=O)C2Cn3ccnc3C3(CCN(C(C)=O)CC3)O2)c1 (centres undefined) | > 50 µM (inactive) |
| COc1ccc(OC)c(NC(=O)c2cc(Cl)ccc2OC)c1 | 1.66 µM |
| CN1c2ccccc2CN(CC(N)=O)CC1Cc1ccccc1 (centres undefined) | > 50 µM (inactive) |
| CC1=C(c2ccc(C)c(C)c2)S(=O)(=O)NC1=NCC(=O)NCCCc1ccccc1 | 25.5 µM |
| CC(=O)c1ccc(Cc2ncc(C(F)(F)F)cc2Cl)s1 | 6.83 µM |
| Cc1ccc(C(=O)N2CCCC3(C2)Nc2cccnc2NC3=NC2CCCC2)s1 (centres undefined) | > 50 µM (inactive) |
| Cc1ccn(-c2ccc(NC(=O)c3ccccc3Sc3ccccc3C#N)cc2)n1 | 36.1 µM |
| CN(C(=O)c1cccc2cccnc12)c1nc2c(s1)CCc1occc1-2 | 26.9 µM |
